# Experimental data reported in patent US12371454B2, “Cyclic peptide compound having Kras inhibitory action” (priority 2019, dated 2025).
# Starred links: 1 amine or outer side, 2 acyl side, 3 side chain; linkers in the order of their positions; H or OH if unused. Positions of bridges follow the written chain, without caps; N, C: chain ends. Non-standard residues stand in square brackets, D forms with d. Residues, ends and D or L forms follow the SMILES beside them. *: point of attachment. hPhe(3-Cl-4-CF3) = N[C@@H](CCc1ccc(C(F)(F)F)c(Cl)c1)C(=O)O; Pro(trans-4-Ph) = O=C(O)[C@@H]1C[C@@H](c2ccccc2)CN1; NMeNle(6-CHF2) = CN[C@@H](CCCCC(F)F)C(=O)O; NMedβ3hAla = C[C@H](CC(=O)[*:2])N(C)[*:1]; NMeAla(cPent) = CN[C@@H](CC1CCCC1)C(=O)O; NMeGly(cPent) = CN[C@H](C(=O)O)C1CCCC1; NMeGly(cBu) = CN[C@H](C(=O)O)C1CCC1; NMeCha = CN[C@@H](CC1CCCCC1)C(=O)O; NMeGly(cPr) = CN[C@H](C(=O)O)C1CC1; NMeAhp(2) = CCCCC[C@H](NC)C(=O)O; NMeChg = CN[C@H](C(=O)O)C1CCCCC1; NMeI = CC[C@H](C)[C@H](NC)C(=O)O; NMeD = CN[C@@H](CC(=O)O)C(=O)O; NMeL = CN[C@@H](CC(C)C)C(=O)O; NMeV = CN[C@H](C(=O)O)C(C)C; Azetidin(1-yl) = C1CN(*)C1; NMeA = CN[C@@H](C)C(=O)O; Piperidide = C1CCN(*)CC1; Ac5c = NC1(C(=O)O)CCCC1; Aze = O=C(O)[C@@H]1CCN1; Sar = CNCC(=O)O
# Tested on: Human pancreatic cancer cell line AsPC-1
# Test: Measurement of AsPC-1 cell growth inhibition (AsPC-1 CGI)
# Assay type: cell-based
# Settings: 96 h
# Method: Measurement of AsPC-1 Cell Growth Inhibition (AsPC-1 CGI)
# Test compounds were serially diluted with dimethyl sulfoxide, and 200 nL was then dispensed to a U-bottom 96-well plate using Labcyte Echo. Human pancreatic cancer cell line AsPC-1 was suspended in RPMI-1640 medium supplemented with 15% fetal bovine serum to prepare a cell suspension at 1000 cells/100 μL. The cell suspension was dispensed to a plate containing a test compound at 100 μL per well and incubated at 37° C. in a 5% carbon dioxide gas incubator. 96 hours later, 80 μL of CellTiter-Glo (Promega) was added to each well and […] was measured.
row,Compound,IC50 [µM]
1,CC[C@H](C)[C@@H]1NC(=O)[C@H](C2CCCCC2)N(C)C(=O)C[C@@H](C(=O)N2CCCCC2)N(C)C(=O)[C@H](C(C)C)N(C)C(=O)C2(CCCC2)NC(=O)[C@@H]2CCCN2C(=O)[C@H](CCc2ccc(C(F)(F)F)c(Cl)c2)NC(=O)CN(C)C(=O)[C@H](CC2CCCCC2)N(C)C(=O)[C@@H]2CCN2C(=O)[C@H](C)N(C)C1=O [Compound 58] ([NMeChg]I[NMeA][Aze][NMeCha][Sar][hPhe(3-Cl-4-CF3)]P[Ac5c][NMeV][NMeD]-Piperidide; lactam N-11),0.1 to 0.5
2,CC[C@H](C)[C@@H]1NC(=O)[C@H](CC(C)C)N(C)C(=O)C[C@@H](C(=O)N2CCCCC2)N(C)C(=O)[C@H](C(C)C)N(C)C(=O)C2(CCCC2)NC(=O)[C@@H]2CCCN2C(=O)[C@H](CCc2ccc(C(F)(F)F)c(Cl)c2)NC(=O)CN(C)C(=O)[C@H](CCCCC(F)F)N(C)C(=O)[C@@H]2CCN2C(=O)[C@H](C)N(C)C1=O [Compound 78] ([NMeL]I[NMeA][Aze][NMeNle(6-CHF2)][Sar][hPhe(3-Cl-4-CF3)]P[Ac5c][NMeV][NMeD]-Piperidide; lactam N-11),0.1 to 0.5
3,CC[C@H](C)[C@@H]1NC(=O)[C@H](CC(C)C)N(C)C(=O)C[C@@H](C)N(C)C(=O)[C@H]([C@@H](C)CC)N(C)C(=O)C2(CCCC2)NC(=O)[C@@H]2CCCN2C(=O)[C@H](CCc2ccc(C(F)(F)F)c(Cl)c2)NC(=O)CN(C)C(=O)[C@H](C2CCCC2)N(C)C(=O)[C@@H]2CCN2C(=O)[C@H](C)N(C)C1=O [Compound 79] (cyclo([Ac5c][NMeI][NMedβ3hAla][NMeL]I[NMeA][Aze][NMeGly(cPent)][Sar][hPhe(3-Cl-4-CF3)]P)),0.02 to 0.05
4,CC[C@H](C)[C@@H]1NC(=O)[C@H](CC(C)C)N(C)C(=O)C[C@@H](C)N(C)C(=O)[C@H](C(C)C)N(C)C(=O)C2(CCCC2)NC(=O)[C@@H]2CCCN2C(=O)[C@H](CCc2ccc(C(F)(F)F)c(Cl)c2)NC(=O)CN(C)C(=O)[C@H](CC2CCCC2)N(C)C(=O)CN(C)C(=O)CN(C)C1=O [Compound 88] (cyclo([Ac5c][NMeV][NMedβ3hAla][NMeL]I[Sar][Sar][NMeAla(cPent)][Sar][hPhe(3-Cl-4-CF3)]P)),0.05 to 0.1
5,CC[C@H](C)[C@@H]1NC(=O)[C@H](CC(C)C)N(C)C(=O)C[C@@H](C(=O)N2CCCCC2)N(C)C(=O)[C@H](C2CCCCC2)N(C)C(=O)C2(CCCC2)NC(=O)[C@@H]2C[C@@H](c3ccccc3)CN2C(=O)[C@H](CCc2ccc(C(F)(F)F)c(Cl)c2)NC(=O)CN(C)C(=O)[C@H](CC2CCCCC2)N(C)C(=O)CN(C)C(=O)CN(C)C1=O [Compound 90] ([NMeL]I[Sar][Sar][NMeCha][Sar][hPhe(3-Cl-4-CF3)][Pro(trans-4-Ph)][Ac5c][NMeChg][NMeD]-Piperidide; lactam N-11),0.1 to 0.5
6,CC[C@H](C)[C@@H]1NC(=O)[C@H](CCCCC(F)F)N(C)C(=O)C[C@@H](C(=O)N2CCCCC2)N(C)C(=O)[C@H](C(C)C)N(C)C(=O)C2(CCCC2)NC(=O)[C@@H]2CCCN2C(=O)[C@H](CCc2ccc(C(F)(F)F)c(Cl)c2)NC(=O)CN(C)C(=O)[C@H](CC2CCCCC2)N(C)C(=O)[C@@H]2CCN2C(=O)[C@H](C)N(C)C1=O [Compound 94] ([NMeNle(6-CHF2)]I[NMeA][Aze][NMeCha][Sar][hPhe(3-Cl-4-CF3)]P[Ac5c][NMeV][NMeD]-Piperidide; lactam N-11),0.1 to 0.5
7,CC[C@H](C)[C@@H]1NC(=O)[C@H](C2CC2)N(C)C(=O)C[C@@H](C(=O)N2CCCCC2)N(C)C(=O)[C@H](C(C)C)N(C)C(=O)C2(CCCC2)NC(=O)[C@@H]2CCCN2C(=O)[C@H](CCc2ccc(C(F)(F)F)c(Cl)c2)NC(=O)CN(C)C(=O)[C@H](CC2CCCCC2)N(C)C(=O)[C@@H]2CCN2C(=O)[C@H](C)N(C)C1=O [Compound 100] ([NMeGly(cPr)]I[NMeA][Aze][NMeCha][Sar][hPhe(3-Cl-4-CF3)]P[Ac5c][NMeV][NMeD]-Piperidide; lactam N-11),0.1 to 0.5
8,CC[C@H](C)[C@@H]1NC(=O)[C@H](CC(C)C)N(C)C(=O)C[C@@H](C(=O)N2CCCCC2)N(C)C(=O)[C@H](C2CCCC2)N(C)C(=O)C2(CCCC2)NC(=O)[C@@H]2CCCN2C(=O)[C@H](CCc2ccc(C(F)(F)F)c(Cl)c2)NC(=O)CN(C)C(=O)[C@H](C2CCC2)N(C)C(=O)[C@@H]2CCN2C(=O)[C@H](C)N(C)C1=O [Compound 127] ([NMeL]I[NMeA][Aze][NMeGly(cBu)][Sar][hPhe(3-Cl-4-CF3)]P[Ac5c][NMeGly(cPent)][NMeD]-Piperidide; lactam N-11),0.02 to 0.05
9,CCCCC[C@H]1C(=O)N[C@@H]([C@@H](C)CC)C(=O)N[C@@H](C)C(=O)N2CC[C@H]2C(=O)N(C)[C@@H](CC2CCCCC2)C(=O)N(C)CC(=O)N[C@@H](CCc2ccc(C(F)(F)F)c(Cl)c2)C(=O)N2CCC[C@H]2C(=O)NC2(CCCC2)C(=O)N(C)[C@@H](C2CCCC2)C(=O)N(C)[C@H](C(=O)N2CCC2)CC(=O)N1C [Compound 155] ([NMeAhp(2)]IA[Aze][NMeCha][Sar][hPhe(3-Cl-4-CF3)]P[Ac5c][NMeGly(cPent)][NMeD]-{Azetidin(1-yl)}; lactam N-11),0.02 to 0.05
